Measured values as given in patent US12522576B2, “Polymorphs of D9-THC naphthoylester” (priority 2019, dated 2026).
Values after ≈ are worked out from the molar mass of the structure shown. “Also recorded” adds a separate entry of the source.

How the values were obtained:
Gravimetric solubility = type: physicochemical; settings: 20 °C, organic solvent or mixture, thermodynamic from solid, RT, read-out: Gravimetric Solubility at RT
Protocol: Additional solids or solvents were added to visual solubility samples with vials less than 100 mg/mL to produce slurries at 20 and 50° C. for the subsequent equilibrium solubility assessment. The slurries were stirred at 20 and 50° C. overnight, filtered through 0.2 μm syringe filters and evaporated to dryness under reduced pressure at ambient temperature. Gravimetric solubility was calculated by dividing the dry solids residue mass (mg) by the solvent mass (g). The mg/g solubility values were then converted to mg/mL using solvent density.
The solubility of Group D acetone and DMF solvates were assessed in the corresponding solvents.

[1] = type: physicochemical; settings: for Time of conversion to Form C in the solid-state: ambient temperature
Protocol: Powder X-Ray Diffraction (PXRD). PXRD diffractograms were acquired on a PANalytical X'Pert Pro diffractometer using Ni-filtered Cu Ka (45 kV/40 mA) radiation and a step size of 0.03° 2θ and X'celerator™ RTMS (Real Time Multi-Strip) detector. Configuration on the incidental beam side: variable divergence slits (10 mm irradiated length), 0.04 rad Soller slits, fixed anti-scatter slit (0.50 o), and 10 mm beam mask. Configuration on the diffracted beam side: variable anti-scatter slit (10 mm observed length) and 0.04 rad Soller slit. Samples were mounted flat on zero-background Si wafers.
Group D solvates converted to Form C in the solid-state at different rates, depending on the solvent included. […] No phase-pure Group D was isolated from acetone-containing solvents, indicating the unstable nature of this solvate.

[2] = Polymorph screen of Exo-impurity; type: physicochemical
[3] = Competitive ripening (relative thermodynamic stability of non-solvated forms)
[4] = D9 solubility in the liquors at isolation temperature; type: physicochemical; settings: organic solvent or mixture, thermodynamic from solid
Protocol: At the end of each experiment, suspensions were equilibrated at the isolation temperature (25 or 5° C.) for at least 18 hours and the solids and liquors separated by centrifugation at the isolation temperature. The Exo/D9/D8 ratio (Exo-D9-THC-naphthoylester impurity/D9-THC-naphthoylester/D8-THC-naphthoylester) was determined in both the isolated solids and the liquors, from which the % Exo-depletion in the isolated solids was calculated. Several solids were also isolated at elevated temperatures to assess the impact of the isolation temperature on Exo-impurity depletion.
In addition, the solubility of D9 in the liquors was determined in most of the explored solvents and used to estimate the yield.

[5] = Experiment No. 20, Nitromethane, seed Form E
[6] = Experiment No. 21, DMSO, seed Group D
[7] = Experiment No. 22, Acetone, seed Group D
[8] = Experiment No. 23, MeCN, seed Group D
[9] = Experiment No. 24, P-Xylene/MeOH (10:90), seed Form E

For CCCCCc1cc(OC(=O)c2ccc3ccccc3c2)c2c(c1)OC(C)(C)[C@@H]1CCC(C)=C[C@@H]21 [Acetone solvate of Group D], the solubility (Gravimetric solubility; solvent Acetone, Batch 7) was 98 mg/mL and the Stability of solvate ([1]; no phase-pure Group D isolated from acetone-containing solvents) was “unstable”.
For CCCCCc1cc(OC(=O)c2ccc3ccccc3c2)c2c(c1)OC(C)(C)[C@@H]1CCC(C)=C[C@@H]21 [DMF solvate of Group D], the solubility (Gravimetric solubility; solvent DMF, Batch 8) was 95 mg/mL and the “Time of conversion to Form C in the solid-state” value [1] was “overnight”.
For CCCCCc1cc(OC(=O)c2ccc3ccccc3c2)c2c(c1)OC(C)(C)[C@@H]1CCC(C)=C[C@@H]21 [DMSO solvate], the “Time of conversion to Form C in the solid-state” value [1] was “within five days”.
In the case of C=C1CC[C@@H]2[C@@H](C1)c1c(OC(=O)c3ccc4ccccc4c3)cc(CCCCC)cc1OC2(C)C [Exo, (6aR,10aR)-6,6-dimethyl-9-methylene-3-pentyl-6a,7,8,9,10,10a-hexahydro-6H-benzo[c]chromen-1-yl 2-naphthoate], the “Form Isolated at 5° C. 6 D (Exo)” value [2, 5] is reported as “Input”, the “Form Isolated at RT 5 D (Exo)” value [2, 5] is reported as “Input” and the “Form Isolated at 5° C. 6 D (Exo)” value [2, 6] is reported as “Input”. The “Form Isolated at RT 5 D (Exo)” value [2, 6] was “Input”, the “Form Isolated at 5° C. 6 D (Exo)” value [2, 7] was “Input” and the “Form Isolated at RT 5 D (Exo)” value [2, 7] was “No”. For the same compound, the “Form Isolated at 5° C. 6 D (Exo)” value [2, 8] was “Input”, the “Form Isolated at RT 5 D (Exo)” value [2, 8] was “Input” and the “Form Isolated at 5° C. 6 D (Exo)” value [2, 9] was “Input”. For the same compound, the “Form Isolated at RT 5 D (Exo)” value [2, 9] was “Input” and the Polymorphism ([2]; seeded slurries at RT and 5° C.) was “No evidence of polymorphism”.
In the case of CCCCCc1cc(OC(=O)c2ccc3ccccc3c2)c2c(c1)OC(C)(C)[C@@H]1CCC(C)=C[C@@H]21 [Form F, (6aR,10aR)-6a,7,8,10a-tetrahydro-6,6,9-trimethyl-3-pentyl-6H-dibenzo[b,d]pyran-1-yl ester], the “Form conversion by PXRD” value ([1]; wet-cake after air-drying for five minutes at ambient) is reported as “converted to Form E” and the “Nature (thermodynamic stability of crystal form)” value ([3]; Table 6 summary) is reported as “Transient”.
In the case of CCCCCc1cc(OC(=O)c2ccc3ccccc3c2)c2c(c1)OC(C)(C)[C@@H]1CCC(C)=C[C@@H]21 [Form H, (6aR,10aR)-6a,7,8,10a-tetrahydro-6,6,9-trimethyl-3-pentyl-6H-dibenzo[b,d]pyran-1-yl ester], the solubility ([4]; crystallisation liquors over suspended solid, 5 °C, batch 5, Toluene/MeOH (3:7), seed G, heat T 25, isolation T 5, 10.0 mL/g, SP 11) is reported as 71.4 mg/mL (≈ 152 mM), the solubility ([4]; crystallisation liquors over suspended solid, 25 °C, batch 5, EtOAC/EtOH (2:8), seed H, heat T 50, isolation T 25, 8.0 mL/g, SP 17, Exp 47) is reported as 36.2 mg/mL (≈ 77.2 mM) and the solubility ([4]; crystallisation liquors over suspended solid, 25 °C, batch 5, Toluene/EtOH (1:9), seed G/H, heat T 55, isolation T 25, 9.9 mL/g, SP 16, Exp 46) is reported as 11.1 mg/mL (≈ 23.7 mM). For the same compound, the solubility ([4]; crystallisation liquors over suspended solid, 25 °C, batch 5, Toluene/EtOH (1:9), seed H, heat T 40, isolation T 25, 10.0 mL/g, SP 19, Exp 54) was 19.6 mg/mL (≈ 41.8 mM), the solubility ([4]; crystallisation liquors over suspended solid, 25 °C, batch 5, Toluene/EtOH (2:8), seed H, heat T 25, isolation T 25, 5.0 mL/g, SP 18, Exp 52) was 36.2 mg/mL (≈ 77.2 mM) and the solubility ([4]; crystallisation liquors over suspended solid, 25 °C, batch 5, Toluene/MeOH (1:9), seed H, heat T 50, isolation T 25, 15.0 mL/g, SP 17, Exp 48) was 6.8 mg/mL (≈ 14.5 mM). The solubility ([4]; crystallisation liquors over suspended solid, 25 °C, batch 5, Toluene/MeOH (2:8), seed H, heat T 50, isolation T 25, 6.0 mL/g, SP 17, Exp 41) was 25.1 mg/mL (≈ 53.6 mM), the solubility ([4]; crystallisation liquors over suspended solid, 25 °C, batch 5, Toluene/MeOH (3:7), seed G, heat T 25, isolation T 25, 5.5 mL/g, SP 7) was 69.9 mg/mL (≈ 149 mM) and the solubility ([4]; crystallisation liquors over suspended solid, 25 °C, batch 5, Toluene/MeOH (3:7), seed G, heat T 25, isolation T 25, 8.0 mL/g, SP 7) was 80.2 mg/mL (≈ 171 mM). The solubility ([4]; crystallisation liquors over suspended solid, 25 °C, batch 5, Toluene/MeOH (3:7), seed G, heat T 25, isolation T 25, 10.0 mL/g, SP 7) was 64.7 mg/mL (≈ 138 mM), the solubility ([4]; liquors of the equilibrated crystallisation suspension, 5 °C, Toluene/MeOH (3:7), isolation 5 °C, SP 11, 10.0 mL/g, read-out: D9 Solubility at Isolation T) was 71.4 mg/mL (≈ 152 mM) and the solubility ([4]; liquors of the equilibrated crystallisation suspension, 25 °C, EtOAC/EtOH (2:8), isolation 25 °C, SP 17, 8.0 mL/g, read-out: D9 Solubility at Isolation T) was 36.2 mg/mL (≈ 77.2 mM). For the same compound, the solubility ([4]; liquors of the equilibrated crystallisation suspension, 25 °C, EtOAc/MeOH (1:3), isolation 25 °C, SP 21, 10.0 mL/g, read-out: D9 Solubility at Isolation T) was 8.9 mg/mL (≈ 19 mM), the solubility ([4]; liquors of the equilibrated crystallisation suspension, 25 °C, Toluene/EtOH (1:9), isolation 25 °C, SP 16, 9.9 mL/g, read-out: D9 Solubility at Isolation T) was 11.1 mg/mL (≈ 23.7 mM) and the solubility ([4]; liquors of the equilibrated crystallisation suspension, 25 °C, Toluene/EtOH (1:9), isolation 25 °C, SP 19, 10.0 mL/g, read-out: D9 Solubility at Isolation T) was 19.6 mg/mL (≈ 41.8 mM). For the same compound, the solubility ([4]; liquors of the equilibrated crystallisation suspension, 25 °C, Toluene/EtOH (2:8), isolation 25 °C, SP 18, 5.0 mL/g, read-out: D9 Solubility at Isolation T) was 36.2 mg/mL (≈ 77.2 mM), the solubility ([4]; liquors of the equilibrated crystallisation suspension, 25 °C, Toluene/MeOH (1:9), isolation 25 °C, SP 17, 15.0 mL/g, read-out: D9 Solubility at Isolation T) was 6.8 mg/mL (≈ 14.5 mM) and the solubility ([4]; liquors of the equilibrated crystallisation suspension, 25 °C, Toluene/MeOH (2:8), isolation 25 °C, SP 17, 6.0 mL/g, read-out: D9 Solubility at Isolation T) was 25.1 mg/mL (≈ 53.6 mM). It also gave a solubility ([4]; liquors of the equilibrated crystallisation suspension, 25 °C, Toluene/MeOH (3:7), isolation 25 °C, SP 7, 5.5 mL/g, read-out: D9 Solubility at Isolation T) of 69.9 mg/mL (≈ 149 mM), a solubility ([4]; liquors of the equilibrated crystallisation suspension, 25 °C, Toluene/MeOH (3:7), isolation 25 °C, SP 7, 8.0 mL/g, read-out: D9 Solubility at Isolation T) of 80.2 mg/mL (≈ 171 mM) and a solubility ([4]; liquors of the equilibrated crystallisation suspension, 25 °C, Toluene/MeOH (3:7), isolation 25 °C, SP 7, 10.0 mL/g, read-out: D9 Solubility at Isolation T) of 64.7 mg/mL (≈ 138 mM). The solubility ([4]; liquors of the equilibrated crystallisation suspension, 25 °C, batch 5, EtOAc/MeOH (1:3), seed H, heat T 55, isolation T 25, 10.0 mL/g, SP 21, Exp 34) was 8.9 mg/mL (≈ 19 mM), the Relative thermodynamic stability ([3]; at 5° C., ripening incomplete within 29 days) was “likely the most-stable form” and the Relative thermodynamic stability ([3]; between 25-60° C., non-solvate forming solvents) was “most stable non-solvated crystal form; also recorded: thermodynamically most-stable form”.
